From ChEMBL document CHEMBL2176876, “Discovery of potent and selective pyrazolopyrimidine janus kinase 2 inhibitors” (J Med Chem, 2012)

How the values were obtained:
[1] = Oral bioavailability in Sprague-Dawley rat at 5 mg/kg; assay type: ADME, organism-based; settings: in vivo
[2] = Permeability from apical to basolateral side in MDCK cells; assay type: ADME, cell-based, Canis lupus familiaris; settings: dog, read-out: permeability
[3] = Volume of distribution at steady state in Sprague-Dawley rat at 0.1 to 1 mg/kg, iv; assay type: ADME, organism-based; parameters: dose 0.1-1 mg/kg, route intravenous; settings: in vivo, read-out: Vdss
[4] = Volume of distribution at steady state in Balb/C mouse at 0.5 mg/kg, iv; assay type: ADME, organism-based; parameters: dose 0.5 mg/kg, route intravenous; settings: in vivo, read-out: Vdss
[5] = Oral bioavailability in Balb/C mouse at 5 mg/kg; assay type: ADME, organism-based; settings: in vivo

| SMILES | bioavailability [1] | Papp A→B [2] | Vd [3] | Vd [4] | bioavailability [5] |
| --- | --- | --- | --- | --- | --- |
| Cc1cc(NC(=O)c2cnn3cccnc23)n(-c2cccc(Cl)c2)n1 | 44% | 10.5 ×10⁻⁶ cm/s | 0.293 L/kg | – | – |
| CNc1ccn2ncc(C(=O)Nc3cc(C)nn3-c3cccc(Cl)c3)c2n1 | 30% | 15.1 ×10⁻⁶ cm/s | 0.843 L/kg | – | – |
| Cn1cc(NC(=O)c2cnn3ccc(N)nc23)c(-c2cc(Cl)ccc2Cl)n1 | 63% | 10.5 ×10⁻⁶ cm/s | 1.08 L/kg | – | – |
| Cn1cc(NC(=O)c2cnn3ccc(N)nc23)c(-c2cccc(Cl)c2)n1 | 7% | – | 0.355 L/kg | – | – |
| Cc1cc(NC(=O)c2cnn3ccc(N)nc23)n(-c2cccc(Cl)c2)n1 | 1% | 8.4 ×10⁻⁶ cm/s | 0.185 L/kg | 0.27 L/kg | 8.6% |
| Cn1cc(NC(=O)c2cnn3cccnc23)c(-c2cccc(Cl)c2)n1 | 124% | – | 0.349 L/kg | – | – |
